{"source": "patent US6638509B1", "about": "“Toxin conjugates” (Kyowa Hakko Kogyo, Co., Ltd., priority 1995, dated 2003)", "test_system": "Human myeloma SK-Ly-18 cells", "assay": "Therapeutic effect on transplanted tumor in nude mice (Test Example 4)", "format": "in vivo, BALB/C nu/nu mice", "conditions": "intravenous, amount corresponding to 7.5 mg/kg ADM, on the 7th day after transplantation, compared with control group, FIG. 2", "method": "Human myeloma SK-Ly-18 cells were suspended in RPMI-1640 medium containing 10% fetal calf serum at a concentration of 2×10^8 cells/ml, and the suspension was mixed with Matrigel (registered trademark; Becton Dickinson Labware, USA) in the ratio of 1:1 (v/v). The mixture (0.1 ml, 1×10^7 cells/mouse) was subcutaneously transplanted into BALB/C nu/nu mice (Clea Japan, Inc.). On the 7th day after the tumor transplantation, a drug-monoclonal antibody conjugate (amount corresponding to 7.5 mg/kg ADM) or ADM (7.5 mg/kg) was intravenously administered to the mice divided in groups each consisting of 5. A control group was given physiological saline in the same manner. The major axis and the minor axis of tumor were measured at intervals, and the tumor volume was calculated as an approximation value of an ellipsoid according to the following equation.\nTumor Volume (mm^3)=(a×b^2)/2\na: major axis (mm) b: minor axis (mm)\nThe therapeutic effect on the transplanted tumor was evaluated in terms of V/V0, the ratio of the tumor volume on the day of evaluation (V) to that on the day of drug administration (V0)."}
{"smiles": "COc1cccc2c1C(=O)c1c(O)c3c(c(O)c1C2=O)C[C@@](O)(C(=O)CO)C[C@@H]3O[C@H]1C[C@H](N)[C@H](O)[C@H](C)O1", "note": "[ADM, Adriamycin, reference compound]", "values": [{"measurement": "tumor growth inhibiting effect (V/V0)", "value": "a growth inhibiting effect was not observed"}]}
